Assay results as given in PubChem BioAssay AID1259411 (Chemical Carcinogenesis Research Information System (CCRIS), 2018).
The source made the active and inactive calls. The rule behind the calls is not given here.

System: rodent carcinogenicity bioassays, tumor incidence
Experiment: CCRIS carcinogenicity studies
In short: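 NCI-built, expert-reviewed records of carcinogenicity and related test outcomes (mutagenicity, tumor promotion/inhibition) compiled from published and report sources, historical span 1985-2011, not updated.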

`Cc1ccnc2ccccc12` was tested, and the carcinogen call (Species: MOUSE, Strain/Sex: CD-1/FEMALE, Route: INTRAPERITONEAL, Dose: 0, 0.25, 0.5, 1.0 UMOL IN DMSO TO NEWBORN MICE ON DAYS 1, 8 AND 15 OF LIFE RESPECTIVELY (TOTAL DOSE: 1.75 UMOL) (STUDY D, Dose: 0, 0.25, 0.5, 1.0 UMOL IN DMSO TO NEWBORN MICE ON DAYS 1, 8 AND 15 OF LIFE RESPECTIVELY (TOTAL DOSE: 1.75 UMOL) (STUDY D) was “inactive; negative”, the carcinogen call (Species: MOUSE, Strain/Sex: CD-1/MALE, Route: INTRAPERITONEAL, Dose: 0, 0.25, 0.5, 1.0 UMOL IN DMSO TO NEWBORN MICE ON DAY 1,8 AND 15 OF LIFE RESPECTIVELY (TOTAL DOSE: 1.75 UMOL) (STUDY DUR, Dose: 0, 0.25, 0.5, 1.0 UMOL IN DMSO TO NEWBORN MICE ON DAY 1,8 AND 15 OF LIFE RESPECTIVELY (TOTAL DOSE: 1.75 UMOL) (STUDY DUR, Tumor Site: Type of Lesion: LIVER: ADENOMA, HEPATOMA) was “active; positive” and the carcinogen call (Species: RAT, Strain/Sex: SPRAGUE-DAWLEY/FEMALE, Route: SUBCUTANEOUS, Dose: 0, 200 UMOL/KG INTO SUPRASCAPULAR REGION ON DAY 1 OF LIFE FOLLOWED BY 0, 100 UMOL 1/WK AT WK 2-7 THEN 0, 200 UMOL ONCE A, Dose: 0, 200 UMOL/KG INTO SUPRASCAPULAR REGION ON DAY 1 OF LIFE FOLLOWED BY 0, 100 UMOL 1/WK AT WK 2-7 THEN 0, 200 UMOL ONCE A) was “inactive; negative”. For the same compound, the carcinogen call (Species: RAT, Strain/Sex: SPRAGUE-DAWLEY/MALE, Route: SUBCUTANEOUS, Dose: 0, 200 UMOL/KG INTO SUPRASCAPULAR REGION ON DAY 1 OF LIFE FOLLOWED BY 0, 100 UMOL 1/WK AT WK 2-7 THEN 0, 200 UMOL ONCE A, Dose: 0, 200 UMOL/KG INTO SUPRASCAPULAR REGION ON DAY 1 OF LIFE FOLLOWED BY 0, 100 UMOL 1/WK AT WK 2-7 THEN 0, 200 UMOL ONCE A) was “inactive; negative”.
With `CO[C@@]12[C@H](COC(N)=O)C3=C(C(=O)C(C)=C(N)C3=O)N1C[C@@H]1N[C@@H]12` the carcinogen call (Species: RAT, Route: INTRAPERITONEAL, Tumor Site: Type of Lesion: PERITONEAL CAVITY) was “active; positive” and the carcinogen call (Species: RAT, Route: INTRAVENOUS, Tumor Site: Type of Lesion: PERITONEAL CAVITY, MAMMARY GLAND, INTESTINES, Tumor Site: Type of Lesion: PERITONEAL CAVITY, MAMMARY GLAND, INTESTINES) was “active; positive”.
`Cc1cnc2ccc3c(nc(N)n3C)c2n1` was tested, and the carcinogen call (Species: MONKEY, Strain/Sex: CYNOMOLGUS/FEMALE, Route: GAVAGE, Dose: 0, 10, 20 MG/KG BW FOR 84 MONTHS (STUDY DURATION: 92 MONTHS), Dose: 0, 10, 20 MG/KG BW FOR 84 MONTHS (STUDY DURATION: 92 MONTHS)) was “inactive; negative”, the carcinogen call (Species: MONKEY, Strain/Sex: CYNOMOLGUS/MALE, Route: GAVAGE, Dose: 0, 10, 20 MG/KG BW FOR 84 MONTHS (STUDY DURATION: 92 MONTHS), Dose: 0, 10, 20 MG/KG BW FOR 84 MONTHS (STUDY DURATION: 92 MONTHS)) was “inactive; negative” and the carcinogen call (Species: MOUSE, Strain/Sex: B6C3F1/MALE, Route: INTRAPERITONEAL, Dose: 0, 0.625 UMOL IN 35 µL DMSO ON D 1, 8, AND 15 AFTER BIRTH (STUDY DURATION: 8 MO)) was “inactive; negative”. The carcinogen call (Species: MOUSE, Strain/Sex: B6C3F1/MALE, Route: INTRAPERITONEAL, Dose: 0, 0.625 UMOL IN 35 µL DMSO ON D 1, 8, AND 15 AFTER BIRTH (STUDY DURATION: 12 MO), Tumor Site: Type of Lesion: LIVER: HEPATOCELLULAR ADENOMA) was “active; positive”, the carcinogen call (Species: MOUSE, Strain/Sex: B6C3F1/MALE, Route: INTRAPERITONEAL, Dose: 0, 1.25 UMOL IN 35 µL DMSO ON D 1, 8, AND 15 AFTER BIRTH (STUDY DURATION: 8 MO)) was “inactive; negative” and the carcinogen call (Species: MOUSE, Strain/Sex: B6C3F1/MALE, Route: INTRAPERITONEAL, Dose: 0, 1.25 UMOL IN 35 µL DMSO ON D 1, 8, AND 15 AFTER BIRTH (STUDY DURATION: 12 MO), Tumor Site: Type of Lesion: LIVER: HEPATOCELLULAR ADENOMA, HEPATOCELLULAR CARCINOMA) was “active; positive”. The carcinogen call (Species: MOUSE, Strain/Sex: C57BL/6J/MALE (20/GROUP), Route: DIET, Dose: 0, 30, 300 PPM FOR 78 WK (STUDY DURATION: 78 WK), Dose: 0, 30, 300 PPM FOR 78 WK (STUDY DURATION: 78 WK)) was “inactive; negative”, the carcinogen call (Species: MOUSE, Strain/Sex: CDF1/FEMALE, Route: ORAL, Dose: 0, 0.06% IN DIET FOR 84 WK (STUDY DURATION: 84 WK), Tumor Site: Type of Lesion: LIVER: TUMOR, LUNG: ADENOMA OR ADENOCARCINOMA) was “active; positive” and the carcinogen call (Species: MOUSE, Strain/Sex: CDF1/MALE, Route: ORAL, Dose: 0, 0.06% IN DIET FOR 84 WK (STUDY DURATION: 84 WK), Tumor Site: Type of Lesion: LIVER: TUMOR, LYMPHATIC SYSTEM: LYMPHOMA OR LEUKEMIA) was “active; positive”. The carcinogen call (Species: RAT, Strain/Sex: F344/FEMALE, Route: ORAL, Dose: 0, 0.04% IN DIET FOR DURATION OF STUDY (STUDY DURATION: 429 D), Tumor Site: Type of Lesion: LIVER: TUMOR, ZYMBAL GLAND: TUMOR, CLITORAL GLAND: TUMOR, Tumor Site: Type of Lesion: LIVER: TUMOR, ZYMBAL GLAND: TUMOR, CLITORAL GLAND: TUMOR) was “active; positive”, the carcinogen call (Species: RAT, Strain/Sex: F344/MALE, Route: ORAL, Dose: 0, 0.04% IN DIET FOR DURATION OF STUDY (STUDY DURATION: 429 D), Tumor Site: Type of Lesion: LIVER: TUMOR, ZYMBAL GLAND: TUMOR, SKIN: TUMOR, Tumor Site: Type of Lesion: LIVER: TUMOR, ZYMBAL GLAND: TUMOR, SKIN: TUMOR) was “active; positive” and the carcinogen call (Species: RAT, Strain/Sex: F344/MALE, Route: ORAL, Dose: 0, 100, 200, 400 PPM IN DIET FOR 56 WK (STUDY DURATION: 56 WK), Dose: 0, 100, 200, 400 PPM IN DIET FOR 56 WK (STUDY DURATION: 56 WK), Tumor Site: Type of Lesion: LIVER: HEPATOCELLULAR ADENOMA, HEPATOCELLULAR CARCINOMA, ZYMBAL GLAND: SQUAMOUS CELL CARCINOMA, SKIN: TUMOR, Tumor Site: Type of Lesion: LIVER: HEPATOCELLULAR ADENOMA, HEPATOCELLULAR CARCINOMA, ZYMBAL GLAND: SQUAMOUS CELL CARCINOMA, SKIN: TUMOR) was “active; positive”. For the same compound, the carcinogen call (Species: RAT, Strain/Sex: LEA/MALE, Route: ORAL, Dose: 0, 40 PPM IN DIET FOR 40 WK (STUDY DURATION: 40 WK)) was “inactive; negative”, the carcinogen call (Species: RAT, Strain/Sex: LEC/MALE, Route: ORAL, Dose: 0, 40 PPM IN DIET FOR 40 WK (STUDY DURATION: 40 WK), Tumor Site: Type of Lesion: LIVER: TUMOR) was “active; positive” and the carcinogen call (Species: RAT, Strain/Sex: SPRAGUE-DAWLEY/FEMALE, Route: GAVAGE, Dose: 75 MG/KG/D FOR 10 D, THEN PLACED ON A HIGH-FAT DIET (STUDY DURATION: 46 WK), Tumor Site: Type of Lesion: MAMMARY GLAND: CARCINOMA, ADENOMA) was “active; positive”.
In the case of `c1ccc2ccccc2c1`, the carcinogen call (Species: MOUSE, Strain/Sex: B6C3F1/FEMALE, Route: INHALATION, Dose: 0, 10, 30 PPM 6 HR/D 5 D/WK FOR 104 WK (STUDY DURATION: 104 WK), Dose: 0, 10, 30 PPM 6 HR/D 5 D/WK FOR 104 WK (STUDY DURATION: 104 WK), Tumor Site: Type of Lesion: LUNG: ALVEOLAR/BRONCHIOLAR ADENOMA OR CARCINOMA) is reported as “active; positive”, the carcinogen call (Species: MOUSE, Strain/Sex: B6C3F1/MALE, Route: INHALATION, Dose: 0, 10, 30 PPM 6 HR/D 5 D/WK FOR 104 WK (STUDY DURATION: 104 WK), Dose: 0, 10, 30 PPM 6 HR/D 5 D/WK FOR 104 WK (STUDY DURATION: 104 WK)) is reported as “inactive; negative” and the carcinogen call (Species: MOUSE, Strain/Sex: CD-1/FEMALE, Route: INTRAPERITONEAL, Dose: 0, 0.25, 0.5, 1.0 UMOL IN DMSO TO NEWBORN MICE ON DAY 1, 8 AND 15 OF LIFE RESPECTIVELY (TOTAL DOSE: 1.75 UMOL) (STUDY DU, Dose: 0, 0.25, 0.5, 1.0 UMOL IN DMSO TO NEWBORN MICE ON DAY 1, 8 AND 15 OF LIFE RESPECTIVELY (TOTAL DOSE: 1.75 UMOL) (STUDY DU) is reported as “inactive; negative”. For the same compound, the carcinogen call (Species: MOUSE, Strain/Sex: CD-1/MALE, Route: INTRAPERITONEAL, Dose: 0, 0.25, O.5, 1.0 UMOL IN DMSO TO NEWBORN MICE ON DAY 1,8 AND 15 OF LIFE RESPECTIVELY (TOTAL DOSE: 1.75 UMOL) (STUDY DUR, Dose: 0, 0.25, O.5, 1.0 UMOL IN DMSO TO NEWBORN MICE ON DAY 1,8 AND 15 OF LIFE RESPECTIVELY (TOTAL DOSE: 1.75 UMOL) (STUDY DUR) was “inactive; negative”, the carcinogen call (Species: RAT, Strain/Sex: F344/N/FEMALE, Route: INHALATION, Dose: 0, 10, 30, 60 PPM 6 HR/D 5 D/WK FOR 105 WK (STUDY DURATION: 105 WK), Dose: 0, 10, 30, 60 PPM 6 HR/D 5 D/WK FOR 105 WK (STUDY DURATION: 105 WK), Tumor Site: Type of Lesion: NOSE: NEUROBLASTOMA) was “active; positive” and the carcinogen call (Species: RAT, Strain/Sex: F344/N/MALE, Route: INHALATION, Dose: 0, 10, 30, 60 PPM 6 HR/D 5 D/WK FOR 105 WK (STUDY DURATION: 105 WK), Dose: 0, 10, 30, 60 PPM 6 HR/D 5 D/WK FOR 105 WK (STUDY DURATION: 105 WK), Tumor Site: Type of Lesion: NOSE: ADENOMA) was “active; positive”.
